Where two headings read alike, the source gives them in different places.
Legend:
[1] = system: HGC-27; assay: Cell viability (CellTiter-Blue, 72 h), HGC-27 gastric cancer cells; assay type: cell-based; settings: Homo sapiens
Description: (§1) The following cell lines were tested in this example: Lung Cancer (A549, NCI-H460); Pancreatic cancer (PANC1, Mia-Pa-Ca-2); Melanoma (WM115, A375); Ovarian cancer (OVCAR3, SKOV3); Gastric cancer (MKN45, HGC-27); Renal cancer (ACHN) and Bladder Cancer (RT112).
(§2) Each tumour cell line was maintained in vitro in RPMI 1640+10% heat inactivated FBS and 2 mM L-glutamine (growth media) at 37° C. in 5% CO2 and humidified conditions. The cells were harvested, washed, re-suspended into growth medium and counted. The cells were re-suspended into assay media (RPMI 1640+5% heat inactivated FBS+ and 2 mM L-glutamine) at 4×10^4 cells/ml (dependent upon cell type) and plated into the middle 240 wells of 384 well tissue culture plates (Corning CellBind, black-wall plates) 25 μl/well aliquots; 50 μl of growth media was aliquoted into the outer wells. There were 3 plates for each cell line.
(§3) The plates were incubated overnight at 37° C., in 5% humidified CO2.
(§4) The phytocannabinoid test compounds were prepared in 100% DMSO vehicle at a stock concentration of 20 and 40 mM.
(§5) Starting with the 20 mM stock in DMSO, this was serially diluted (2 fold) in DMSO in a 96-well plate, to 20 (no dilution), 10, 5, 2.5, 1.25, 0.625, 0.315, 0.157 and […]. Following this, 10 ul of each compound dilution was diluted into 990 ul of 1% (v/v) FBS media in a deep well block making the final concentrations of 200, 100, 50, 25, 12.5, 6.25, 3.125, 1.56 and 0.79 μM (2× final assay concentrations and 1% DMSO).
(§6) An equal volume of each cannabinoid in the combination (stock concentration 40 mM) was mixed together to make a stock of 20 mM of each cannabinoid in DMSO. This was serially diluted (2 fold) in DMSO in a 96-well plate, to 20 (no dilution), 10, 5, 2.5, 1.25, 0.625, 0.315, 0.157 and […]. Following this, 10 ul of each combination dilution was diluted into 990 ul of 1% (v/v) FBS media in a deep well block making the final concentrations of 200, 100, 50, 25, 12.5, 6.25, 3.125, 1.56 and 0.79 μM (2× final assay concentrations and 1% DMSO).
Cisplatin (stock of 1 mg/ml=3.33 mM in water) was diluted in 1% FBS media to give a stock concentration of 1 mM. This was then diluted in 1% FBS media from the stock solution to 200 μM, then serially diluted (3-fold) in 1% FBS media to 200 (no dilution), 66.66, 22.22, 7.41, 2.47, 0.82, 0.27, 0.09, 0.03 μM (2× final assay concentrations; no DMSO).
(§7) The plates were incubated for 72 h at 37° C. in 5% humidified CO2. To develop the plates, at 72 h, 10 μl of CellTiter-Blue™ reagent was added to each test/blank well.
(§8) The plates were incubated at 37° C., 5% humidified CO2. Fluorescence was measured using a Flex II Station plate reader (570 nm excitation wavelength, 600 nm emission wavelength, 590 nm cut-off) after 3 h.
(§9) The phytocannabinoid compounds CBD, CBGA, CBG, CBDA, THCV and THC were tested on a panel of lung (A549, NCI-H460), pancreatic (PANC1, Mia-Pa-Ca-2), melanoma (WM115, A375), ovarian (OVCAR3, SKOV3), gastric (MKN45, HGC-27), renal (ACHN) and bladder (RT112) cancer cell lines according to the protocol for 72 h in media containing 1% FBS.
(§10) The IC50 values for each phytocannabinoid and combination of CBD with the other phytocannabinoids was calculated for each cell line. The raw data values expressed in relative fluorescent units were normalised to the vehicle for each individual plate and any reduction in fluorescence indicated a decrease in viability.
(§11) This calculation was as described in Example 1 above.

[2] = system: A549; assay: Cell viability (CellTiter-Blue, 72 h), A549 lung cancer cells; assay type: cell-based; settings: Homo sapiens
Description: as §1, §2, §3, §4, §5, §6
Taxotere SOC was prepared in 100% DMSO to give a stock concentration of 10 mM. This was diluted in DMSO from the stock solution to 200 μM, then serially diluted (3-fold) in DMSO to 200 (no dilution), 66.66, 22.22, 7.41, 2.47, 0.82, 0.27, 0.09, 0.03 μM. 10 ul of each of the taxotere dilutions was diluted in 990 ul of 1% (v/v) FBS media making the final concentrations of 2, 0.67, 0.22, 0.074, 0.0247, 0.0082, 0.0027 0.0009, 0.0003 μM (2× final assay concentrations and 1% DMSO).
as §7, §8, §9, §10, §11

[3] = HGC-27, HGC27 cells, 1% FBS, read-out: Dm (potency, median effect)
[4] = HGC-27, 1% FBS, 72 h, read-out: Cell line IC50 value
[5] = A549, 72 h, read-out: Cell line IC50 value
[6] = A549, read-out: Dm (median effect dose)

## CCCc1cc(O)c2c(c1)OC(C)(C)[C@@H]1CCC(C)=C[C@@H]21 [THCV, Tetrahydrocannabivarin]
[1]; [3]
  IC50: 3.06 µM
[1]; [4]
  IC50: 4.1 µM
[2]; [5]
  IC50: 7.4 µM
[2]; [6]
  IC50: 6.59 µM

## C=C(C)[C@@H]1CCC(C)=C[C@H]1c1c(O)cc(CCCCC)c(C(=O)O)c1O [CBDA, Cannabidiolic acid]
[1]; [3]
  IC50: 10.4 µM
[1]; [4]
  IC50: 1.3 µM
[2]; [5]
  IC50: 8.5 µM
[2]; [6]
  IC50: 7.6 µM

## CCCCCc1cc(O)c(C/C=C(\C)CCC=C(C)C)c(O)c1C(=O)O [CBGA, Cannabigerolic acid]
[1]; [3]
  IC50: 5.47 µM
[1]; [4]
  IC50: 7.8 µM
[2]; [5]
  IC50: 6.1 µM
[2]; [6]
  IC50: 6.89 µM

## C=C(C)[C@@H]1CCC(C)=C[C@H]1c1c(O)cc(CCCCC)cc1O [CBD, Cannabidiol]
[1]; [3]
  IC50: 1.72 µM
[1]; [4]
  IC50: 1.5 µM
[2]; [5]
  IC50: 3.2 µM
[2]; [6]
  IC50: 2.87 µM

## CCCCCc1cc(O)c(C/C=C(\C)CCC=C(C)C)c(O)c1 [CBG, Cannabigerol]
[1]; [3]
  IC50: 1.73 µM
[1]; [4]
  IC50: 1.6 µM
[2]; [5]
  IC50: 4.3 µM
[2]; [6]
  IC50: 4.23 µM

## CC(=O)O[C@@]12CO[C@@H]1C[C@H](O)[C@@]1(C)C(=O)[C@H](O)C3=C(C)[C@@H](OC(=O)[C@H](O)[C@@H](NC(=O)OC(C)(C)C)c4ccccc4)C[C@@](O)([C@@H](OC(=O)c4ccccc4)[C@H]21)C3(C)C [Taxotere, Docetaxel, reference compound]
[2]; [5]
  IC50: 0.0006 µM

## CCCCCc1cc(O)c2c(c1)OC(C)(C)[C@@H]1CCC(C)=C[C@@H]21 [THC, Tetrahydrocannabinol, reference compound]
[1]; [3]
  IC50: 2.74 µM
[1]; [4]
  IC50: 2.8 µM
[2]; [5]
  IC50: 5.5 µM
[2]; [6]
  IC50: 4.08 µM
